From patent publication US20260257992A1, “AGONISTS OF SMALL HETERODIMER PARTNER FOR CANCER THERAPY” (THE BOARD OF TRUSTEES OF THE UNIVERSITY OF ILLINOIS, priority 2023, published 2026)

What was measured:
BMDM viability = assay: Resazurin cell viability assay in BMDMs; format: cell-based, mouse; settings: increasing doses up to 100 μM
Experimental: In order to better assess the potential cellular toxicity of DSHN-OMe, we treated BMDMs with increasing doses and measured their ability to reduce resazurin to resorufin (similar to the MTT viability assay).
Resazurin cell viability assay. 20,000 cells were seeded into 96 well f-bottom, black plates (Corning Costar) and cell viability was measured using 100 μL resazurin per well at 0.3 mg/mL (Acros Organics). The fluorescence signal was quantified by plate reader (560 nm excitation/590 nm emission) at 2-3 h.

4T1 metastatic lesions = assay: Outgrowth of established 4T1 lung metastatic lesions (intravenous graft); format: in vivo, mouse; settings: for Outgrowth of 4T1 metastatic lesions, combined with αPDL1: compound combined with αPDL1; for Outgrowth of established 4T1 metastatic lesions, single agent: lesions established 3 d before treatment
Source text: FIG. 3A-3F. DSHN, a tool small molecule agonist of NR0B2 reduces macrophage/dendritic cell induced Treg expansion and tumor growth in murine models. […] (B) Dendritic cells (left-CD11B^+; CD11C^+) and CD4^+ T cells (right) were isolated from MMTV-PyMT tumors by FACS, and treated with vehicle or DSHN for 3d. The resulting frequency of Treg (CD4^+; CD25^+; FoxP3^+) was quantified by flow cytometry (right graph), (N=3-5/group, t test). […] The percentage of divided CD8+ T cells in the second round was quantified. (D) DSHN increases efficacy of αPDL1 therapy on orthotopic E0771 tumors. An optimal number of E0771 cells were grafted into FoxP3-EGFP mice and allowed to grow until tumors reached 100 mm^3. Mice were euthanized on day 19 (waterfall plot, Fisher's exact test). (E) DSHN increases efficacy of αPDL1 therapy on orthotopic 4T1 tumors. 4T1 cells were orthotopically grafted into mice and allowed to establish for 5d prior to treatment start. Mice were euthanized on day 16 (waterfall plot, Fisher's exact test). (F) DSHN reduces metastatic outgrowth of 4T1 tumors and enhances efficacy of αPDL1 compared to placebo (p) (2-way ANOVA followed by Šidák's multiple comparison test for day 16). 4T1 cells were grafted intravenously, and lung metastatic lesions allowed to establish for 3d before treatment commenced. At the end of the study, lungs were removed and imaged ex vivo, quantified data indicated (N=10, 1-way ANOVA followed by Newman-Keuls multiple comparison test). Representative luciferase images shown to the right. * or different letters denote P<0.05 using indicated statistical test.
FIG. 7A-7I. DSHN-OMe reduces tumor and metastatic growth in murine models, in a myeloid cell-NR0B2 dependent manner. (A) E0771 cells were grafted into control mice (NR0B2^+/+; LysMCre^+) or mice where NR0B2 was knocked out in myeloid immune cells (NR0B2^fl/fl; LysMCre^+). 8 days post-graft, daily treatment with placebo or DSHN-OMe was initiated and subsequent tumor growth followed through time. Different letters denote statistical difference on the final measurement (day 21, 2-Way ANOVA followed by Šidák's post-hoc, N=5-8). (B) Waterfall plot illustration of data in (A) showing tumor volume at final day of measurement. Asterisk indicates significant difference (Chi-squared test, P<0.05). (C) Lewis Lung cells were grafted into control mice (NR0B2^+/+; LysMCre^+) or mice where NR0B2 was knocked out in myeloid immune cells (NR0B2^fl/fl; LysMCre^+). 10 days post-graft, daily treatment with placebo or DSHN-OMe was initiated and subsequent tumor growth followed through time. […] (G) EMT6 metastatic lungs were assessed for Ki67 mRNA and (H) FOXP3 mRNA. (I) EMT6 metastatic lungs were assessed for CD8+ cytotoxic T cells (CD8+). […]

Row | SMILES | BMDM viability (resazurin reduction) (BMDM viability) | Outgrowth of 4T1 metastatic lesions, combined with αPDL1 (4T1 metastatic lesions) | Outgrowth of established 4T1 metastatic lesions, single agent (4T1 metastatic lesions)
1 | CCN(CC)S(=O)(=O)c1cccc2cc(C(=O)OC)c(O)cc12 [DSHN-OMe, Methyl 5-(N,N-diethylsulfamoyl)-3-hydroxy-2-naphthoate] | no significant difference was observed in viability up to 100 μM | did not significantly influence the effects of DSHN-OMe | significantly reduced the outgrowth of established 4T1 metastatic lesions
2 | CCN(CC)S(=O)(=O)c1cccc2cc(C(=O)O)c(O)cc12 [DSHN, reference compound] | no significant difference was observed in viability up to 100 μM | reduced outgrowth even further than DSHN alone | slowed the growth of metastatic lesions
